Results reported in PubChem BioAssay (NCI).
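Step 1: Grow cells in 96-well plates. Step 2: Expose to compound for 48 hours at 5 concentrations. Step 3: Interpolate endpoints linearly; if unreached, use highest concentration. The concentration for full growth arrest is given as TGI.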

Experiments:
Assay in all cases: NCI-60 cell line screen, 48 h
OVCAR-3 ovarian = tested on: OVCAR-3 ovarian
NCI-H226 lung = tested on: NCI-H226 lung
SK-MEL-5 melanoma = tested on: SK-MEL-5 melanoma
SK-MEL-2 melanoma = tested on: SK-MEL-2 melanoma
KM12 colon = tested on: KM12 colon
DU-145 prostate = tested on: DU-145 prostate
NCI-H460 lung = tested on: NCI-H460 lung
UO-31 renal = tested on: UO-31 renal
HCC-2998 colon = tested on: HCC-2998 colon
LOX IMVI melanoma = tested on: LOX IMVI melanoma
MDA-N = tested on: MDA-N
786-0 renal = tested on: 786-0 renal
OVCAR-4 ovarian = tested on: OVCAR-4 ovarian
MDA-MB-435 = tested on: MDA-MB-435
HT29 colon = tested on: HT29 colon
SW-620 colon = tested on: SW-620 colon
ACHN renal = tested on: ACHN renal
A498 renal = tested on: A498 renal
RXF 393 renal = tested on: RXF 393 renal

| SMILES | TGI (OVCAR-3 ovarian) [µM] | TGI (NCI-H226 lung) [µM] | TGI (SK-MEL-5 melanoma) [µM] | TGI (SK-MEL-2 melanoma) [µM] | TGI (KM12 colon) [µM] | TGI (DU-145 prostate) [µM] | TGI (NCI-H460 lung) [µM] | TGI (UO-31 renal) [µM] | TGI (HCC-2998 colon) [µM] | TGI (LOX IMVI melanoma) [µM] | TGI (MDA-N) [µM] | TGI (786-0 renal) [µM] | TGI (OVCAR-4 ovarian) [µM] | TGI (MDA-MB-435) [µM] | TGI (HT29 colon) [µM] | TGI (SW-620 colon) [µM] | TGI (ACHN renal) [µM] | TGI (A498 renal) [µM] | TGI (RXF 393 renal) [µM] |
| --- | --- | --- | --- | --- | --- | --- | --- | --- | --- | --- | --- | --- | --- | --- | --- | --- | --- | --- | --- |
| Clc1ccc(Oc2ccc(N=Cc3ccc(Cl)cc3Cl)cc2Cl)cc1 | > 100 | > 100 | > 100 | > 100 | > 100 | > 100 | > 100 | > 100 | > 100 | > 100 | 33.7 | 63.5 | > 100 | 49.7 | > 100 | > 100 | > 100 | – | – |
| CCCCC(=O)Nc1ccc2cc(C(=O)OC)c(ON3C(=O)c4ccccc4C3=O)nc2n1 | > 100 | 60.2 | > 100 | > 100 | > 100 | – | 51.4 | 44.4 | > 100 | > 100 | 80.7 | 36.1 | 81.2 | > 100 | – | > 100 | > 100 | > 100 | 52.3 |
| CC1(C)CC(=O)C2=C(C1)c1c(ccc3ccccc13)NC2c1cn(Cc2ccc(Cl)cc2)c2ccccc12 (centres undefined) | > 100 | – | > 100 | > 100 | > 100 | > 100 | > 100 | > 100 | – | > 100 | > 100 | > 100 | > 100 | > 100 | > 100 | > 100 | > 100 | – | – |
| CC(OC(=O)NCn1cc(-c2ccccc2)nn1)c1ccccc1 (centres undefined) | – | 56.4 | 32.4 | > 100 | > 100 | > 100 | > 100 | – | > 100 | > 100 | – | > 100 | – | > 100 | > 100 | > 100 | > 100 | – | – |
| O=C(O)C1CCCN1Cc1cc2ccccc2c2ccccc12 (centres undefined) | > 100 | > 100 | > 100 | > 100 | > 100 | > 100 | > 100 | > 100 | – | > 100 | > 100 | > 100 | > 100 | > 100 | > 100 | > 100 | > 100 | > 100 | > 100 |
| CCOC(=O)C(=O)Nc1c(F)cc(F)cc1Br | > 100 | > 100 | > 100 | > 100 | > 100 | – | > 100 | > 100 | > 100 | > 100 | – | > 100 | > 100 | – | > 100 | > 100 | > 100 | > 100 | > 100 |
| O=C(/C=C/c1ccc(Cl)cc1)Oc1ccc(/C=C2\CCCCC2=O)cc1 | > 100 | – | > 100 | > 100 | > 100 | > 100 | > 100 | > 100 | > 100 | > 100 | > 100 | > 100 | > 100 | > 100 | > 100 | > 100 | > 100 | > 100 | – |
| O=c1[nH]c(=O)n(C2CC(O)C(CO)O2)cc1OCCCc1ccccc1 (centres undefined) | > 100 | > 100 | > 100 | – | > 100 | > 100 | > 100 | > 100 | – | > 100 | > 100 | > 100 | > 100 | > 100 | > 100 | – | > 100 | – | > 100 |
| O=C(CC(=O)N1N=C(N2CCCCC2)CC1c1ccccc1)Nc1ccc(Cl)cc1 (centres undefined) | > 100 | > 100 | > 100 | > 100 | > 100 | > 100 | > 100 | > 100 | > 100 | > 100 | > 100 | > 100 | > 100 | > 100 | > 100 | > 100 | > 100 | > 100 | – |
| O=C1CCC[C@]2(CCC[C@@H](O)C2)N1 | > 100 | – | > 100 | > 100 | > 100 | > 100 | > 100 | – | > 100 | > 100 | > 100 | > 100 | > 100 | – | > 100 | – | > 100 | – | > 100 |
| CC1(C)C(=O)C(C)(C)C12SSC1(S2)C(C)(C)C(=O)C1(C)C | > 100 | > 100 | > 100 | > 100 | > 100 | > 100 | > 100 | > 100 | > 100 | > 100 | > 100 | > 100 | > 100 | > 100 | > 100 | > 100 | > 100 | > 100 | – |
| O=c1cc(N2CCOCC2)[nH]c(=O)n1-c1cccc(C(F)(F)F)c1 | > 100 | > 100 | > 100 | > 100 | > 100 | > 100 | > 100 | > 100 | > 100 | > 100 | > 100 | > 100 | > 100 | > 100 | > 100 | > 100 | > 100 | > 100 | – |
| Cc1cccc2c1Oc1cc(Cl)ccc1C2NC(=O)CCN1CCN(CCO)CC1 (centres undefined) | 34 | – | 27 | – | 11.5 | 61.2 | 34.2 | 26.8 | 43.7 | 9.7 | 14.6 | 26.5 | 31 | 27.5 | 29.8 | 32.2 | – | – | – |
| CCNC1(c2cccc(C)c2)OC(C)(C)c2cccc3cccc1c23 (centres undefined) | 33.2 | 39 | 34.8 | 30.3 | 69.8 | 36.1 | 30 | 29.8 | – | 32.6 | 36.8 | 37.6 | 29.9 | 33.2 | 27.8 | 36.6 | 32.4 | 32.2 | 32.1 |
| COc1ccc(/C(=N/NC(=O)NN)C(c2ccc(OC)cc2)C2(O)CNc3c(Cl)cc(Cl)cc32)cc1 (centres undefined) | > 100 | > 100 | > 100 | > 100 | > 100 | – | > 100 | > 100 | > 100 | > 100 | – | > 100 | > 100 | – | > 100 | > 100 | > 100 | > 100 | > 100 |
| COc1ccc(C2SCC(=O)N2c2ccc(-n3c(-c4ccccc4)nc4ccccc4c3=O)cc2)cc1OC (centres undefined) | > 100 | > 100 | > 100 | > 100 | > 100 | – | > 100 | > 100 | > 100 | > 100 | > 100 | > 100 | – | > 100 | > 100 | > 100 | > 100 | > 100 | – |
| O=C1C(/C=C/c2ccc(Cl)cc2)=NNC2N1N=C1NC(=O)C3(NN12)c1ccccc1-c1ccccc13 (centres undefined) | > 100 | > 100 | > 100 | > 100 | – | > 100 | > 100 | > 100 | > 100 | > 100 | – | > 100 | > 100 | > 100 | > 100 | > 100 | > 100 | > 100 | > 100 |
| Cn1c(=O)cc(NCc2ccc(Cl)cc2)[nH]c1=O | > 100 | > 100 | > 100 | > 100 | > 100 | – | > 100 | > 100 | > 100 | > 100 | > 100 | > 100 | > 100 | > 100 | > 100 | > 100 | > 100 | > 100 | > 100 |
| O=[N+]([O-])c1ccc(C2=NOC(c3ccccc3F)N2C23CC4CC(CC(C4)C2)C3)cc1 (centres undefined) | > 100 | > 100 | > 100 | > 100 | > 100 | > 100 | > 100 | > 100 | > 100 | > 100 | > 100 | > 100 | > 100 | > 100 | > 100 | > 100 | > 100 | > 100 | – |
| O=c1oc2ccccc2c(O)c1C(c1ccco1)c1c(O)c2ccccc2oc1=O | > 100 | > 100 | > 100 | > 100 | > 100 | > 100 | > 100 | 43.9 | 55.1 | 61.1 | 44.9 | 55.5 | > 100 | 85.4 | > 100 | 49.8 | 55.8 | > 100 | – |
| O=C/C(=C(/Br)I)c1ccccc1 | 7.65 | 26 | 13.8 | 13.5 | 19 | 29.2 | 26.4 | 9.32 | – | 10.9 | 6.86 | 5.38 | 10.6 | 6.74 | 5.29 | 2.75 | 9.63 | 33.9 | 7.2 |
